Literature values in US20230338402A1, “TREATMENT REGIMEN FOR CANCER USING IMMUNOMODULATION” (BioXcel Therapeutics, Inc., priority 2020, published 2023).
Where a name gives a salt, the structure may show the parent alone.

Experiments:
CYP2C9 = CYP2C9 (Homo sapiens, UniProt P11712)
CYP1A2 [1] = target: T1, CYP1A2 (Homo sapiens, UniProt P05177); conditions: human liver CYP isoenzymes, preclinical studies
T1 sequence (P05177 1-516): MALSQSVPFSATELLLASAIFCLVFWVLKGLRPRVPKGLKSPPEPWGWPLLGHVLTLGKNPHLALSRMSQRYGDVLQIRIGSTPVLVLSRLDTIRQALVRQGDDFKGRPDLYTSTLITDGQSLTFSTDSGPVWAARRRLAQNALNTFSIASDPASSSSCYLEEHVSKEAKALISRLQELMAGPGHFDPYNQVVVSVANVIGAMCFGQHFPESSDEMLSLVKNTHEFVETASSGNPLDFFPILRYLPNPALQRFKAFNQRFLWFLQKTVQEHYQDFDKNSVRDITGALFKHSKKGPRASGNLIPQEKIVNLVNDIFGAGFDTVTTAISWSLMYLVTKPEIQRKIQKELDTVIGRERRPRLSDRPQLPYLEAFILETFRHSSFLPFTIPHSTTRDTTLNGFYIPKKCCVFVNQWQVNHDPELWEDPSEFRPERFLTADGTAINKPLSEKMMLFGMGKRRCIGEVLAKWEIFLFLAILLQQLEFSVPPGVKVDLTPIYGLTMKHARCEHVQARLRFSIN

CYP1A2 [2] = test system: CYP1A2
CYP3A4 [3] = target: CYP3A4 (Homo sapiens, UniProt P08684)
CYP2C8 = target: T2, CYP2C8 (Homo sapiens, UniProt P10632)
T2 sequence (P10632 1-490): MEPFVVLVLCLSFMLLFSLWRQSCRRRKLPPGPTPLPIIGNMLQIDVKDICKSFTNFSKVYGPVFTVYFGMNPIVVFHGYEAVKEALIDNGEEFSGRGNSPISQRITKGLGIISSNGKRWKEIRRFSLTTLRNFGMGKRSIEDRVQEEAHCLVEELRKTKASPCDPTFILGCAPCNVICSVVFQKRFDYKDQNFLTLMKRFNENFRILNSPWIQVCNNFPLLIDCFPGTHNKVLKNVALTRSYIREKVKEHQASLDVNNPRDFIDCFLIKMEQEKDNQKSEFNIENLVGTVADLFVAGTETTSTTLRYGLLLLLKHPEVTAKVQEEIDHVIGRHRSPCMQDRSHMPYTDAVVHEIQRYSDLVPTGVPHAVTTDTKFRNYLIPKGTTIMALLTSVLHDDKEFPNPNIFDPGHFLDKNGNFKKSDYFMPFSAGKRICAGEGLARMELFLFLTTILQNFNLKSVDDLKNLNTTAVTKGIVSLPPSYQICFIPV

CYP2C19 = CYP2C19 (Homo sapiens, UniProt P33261)
CYP3A4 [4] = test system: CYP3A4
CYP2D6 = CYP2D6 (Homo sapiens, UniProt P10635)
melanoma = melanoma patients

Sequence of CYP2C19 (P33261 whole entry): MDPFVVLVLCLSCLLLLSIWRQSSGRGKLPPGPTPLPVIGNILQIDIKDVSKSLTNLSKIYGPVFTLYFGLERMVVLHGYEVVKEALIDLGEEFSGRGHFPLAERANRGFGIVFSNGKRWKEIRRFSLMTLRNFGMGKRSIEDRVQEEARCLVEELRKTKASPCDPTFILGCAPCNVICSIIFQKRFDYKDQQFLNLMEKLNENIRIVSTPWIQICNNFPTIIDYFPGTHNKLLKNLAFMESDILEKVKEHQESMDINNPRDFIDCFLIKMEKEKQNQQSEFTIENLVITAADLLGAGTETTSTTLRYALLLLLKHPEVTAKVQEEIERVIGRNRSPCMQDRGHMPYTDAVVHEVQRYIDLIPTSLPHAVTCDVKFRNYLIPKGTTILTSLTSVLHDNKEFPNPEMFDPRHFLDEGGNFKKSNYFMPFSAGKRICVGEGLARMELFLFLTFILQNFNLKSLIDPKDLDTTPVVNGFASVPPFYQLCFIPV
Sequence of CYP3A4 (Homo sapiens, UniProt P08684) (P08684 whole entry): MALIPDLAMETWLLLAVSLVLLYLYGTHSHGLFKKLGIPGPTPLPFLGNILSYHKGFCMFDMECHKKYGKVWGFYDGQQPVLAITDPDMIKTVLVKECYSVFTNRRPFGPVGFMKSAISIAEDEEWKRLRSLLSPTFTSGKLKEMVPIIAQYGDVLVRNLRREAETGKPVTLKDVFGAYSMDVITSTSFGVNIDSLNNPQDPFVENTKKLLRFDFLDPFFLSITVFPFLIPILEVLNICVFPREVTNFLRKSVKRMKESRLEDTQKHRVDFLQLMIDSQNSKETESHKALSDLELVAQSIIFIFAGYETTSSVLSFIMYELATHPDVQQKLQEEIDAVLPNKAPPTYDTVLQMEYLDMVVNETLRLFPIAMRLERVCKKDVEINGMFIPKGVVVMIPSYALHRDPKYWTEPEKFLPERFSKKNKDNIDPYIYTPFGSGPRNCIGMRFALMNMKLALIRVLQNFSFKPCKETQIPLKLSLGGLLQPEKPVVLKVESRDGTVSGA
Sequence of CYP2C9 (P11712 whole entry): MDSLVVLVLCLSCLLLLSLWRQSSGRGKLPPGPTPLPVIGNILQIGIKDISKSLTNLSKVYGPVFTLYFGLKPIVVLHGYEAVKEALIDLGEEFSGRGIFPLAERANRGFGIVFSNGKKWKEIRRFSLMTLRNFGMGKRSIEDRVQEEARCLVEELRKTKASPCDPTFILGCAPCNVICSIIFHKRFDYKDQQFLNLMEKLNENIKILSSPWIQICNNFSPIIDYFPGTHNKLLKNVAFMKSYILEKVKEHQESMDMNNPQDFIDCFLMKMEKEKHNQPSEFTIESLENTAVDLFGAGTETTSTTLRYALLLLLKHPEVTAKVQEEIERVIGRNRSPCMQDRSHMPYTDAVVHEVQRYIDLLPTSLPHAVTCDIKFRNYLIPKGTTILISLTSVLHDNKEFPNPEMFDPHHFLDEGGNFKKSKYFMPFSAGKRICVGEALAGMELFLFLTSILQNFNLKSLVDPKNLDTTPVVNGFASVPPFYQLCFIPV
Sequence of CYP2D6 (P10635 whole entry): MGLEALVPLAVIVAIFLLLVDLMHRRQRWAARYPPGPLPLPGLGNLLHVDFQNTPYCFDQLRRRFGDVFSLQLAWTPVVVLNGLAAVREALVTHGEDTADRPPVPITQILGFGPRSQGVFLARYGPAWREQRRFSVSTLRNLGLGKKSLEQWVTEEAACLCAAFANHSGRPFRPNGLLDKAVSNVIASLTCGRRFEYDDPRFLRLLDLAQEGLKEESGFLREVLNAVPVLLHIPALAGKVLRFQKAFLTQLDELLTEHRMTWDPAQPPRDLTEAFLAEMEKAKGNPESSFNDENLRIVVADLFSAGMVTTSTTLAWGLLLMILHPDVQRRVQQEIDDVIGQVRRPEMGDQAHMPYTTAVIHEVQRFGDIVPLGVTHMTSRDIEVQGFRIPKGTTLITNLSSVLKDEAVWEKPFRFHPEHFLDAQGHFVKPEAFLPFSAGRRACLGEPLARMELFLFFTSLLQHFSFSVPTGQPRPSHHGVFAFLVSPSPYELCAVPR

For CC(C)[C@H](N)C(=O)N1CCC[C@H]1B(O)O [Talabostat mesylate, [(2R)-1-[(2S)-2-amino-3-methylbutanoyl]pyrrolidin-2-yl]boronic acid], which “Potential to inhibit CYP2C9” value (CYP2C9) is on record?
The value was “low potential”.

And the “Potential to inhibit CYP1A2” value (CYP1A2 [1])?
Its value is “low potential”.

And the “Induction of CYP1A2” value (CYP1A2 [2])?
Its value is “did not induce”.

What about the “Potential to inhibit CYP3A4” value (CYP3A4 [3]) of the same molecule?
Its value is “low potential”.

And the “Potential to inhibit CYP2C8” value (CYP2C8)?
The value was “low potential”.

What about the “Potential to inhibit CYP2C19” value (CYP2C19) of the same molecule?
Its value is “low potential”.

What about the “Induction of CYP3A4” value (CYP3A4 [4]) of the same molecule?
The value was “did not induce”.

What about the “Potential to inhibit CYP2D6” value (CYP2D6) of the same molecule?
Its value is “low potential”.

With “Ipilimumab: CTLA-4 antagonist, immune checkpoint inhibitor antibody” as the molecule, how does the Response rate (melanoma) read?
Its Response rate is 11%.

For “Nivolumab: PD-1 antagonist, immune checkpoint inhibitor antibody”, which Response rate (melanoma) is on record?
Its Response rate is 32%.
